Laboratory results taken from US20230265116A1, “DEGRADATION OF (EGFR) BY CONJUGATION OF EGFR INHIBITORS WITH E3 LIGASE LIGAND AND METHODS OF USE” (BEIGENE, LTD., priority 2020, published 2023).

Assays:
[1] = molecular target: T1, EGFR L858R/T790M/C797S (BaF3-LTC cells) (Homo sapiens, UniProt P00533, C797S/L858R/T790M); assay: EGFR degradation HTRF assay, BaF3-LTC cells; type: cell-based; conditions: BaF3-LTC cells; for DC50: EGFR degradation, IC50 (DC50) from curve fit, read-out: DC50(nM) BaF3-LTC; for Dmax: maximum percentage of inhibition (degradation), read-out: Dmax (%) BaF3-LTC
T1 construct: expressed in transfected cells; host or cells: BaF3
T1 sequence (P00533 25-1210 T790M/C797S/L858R): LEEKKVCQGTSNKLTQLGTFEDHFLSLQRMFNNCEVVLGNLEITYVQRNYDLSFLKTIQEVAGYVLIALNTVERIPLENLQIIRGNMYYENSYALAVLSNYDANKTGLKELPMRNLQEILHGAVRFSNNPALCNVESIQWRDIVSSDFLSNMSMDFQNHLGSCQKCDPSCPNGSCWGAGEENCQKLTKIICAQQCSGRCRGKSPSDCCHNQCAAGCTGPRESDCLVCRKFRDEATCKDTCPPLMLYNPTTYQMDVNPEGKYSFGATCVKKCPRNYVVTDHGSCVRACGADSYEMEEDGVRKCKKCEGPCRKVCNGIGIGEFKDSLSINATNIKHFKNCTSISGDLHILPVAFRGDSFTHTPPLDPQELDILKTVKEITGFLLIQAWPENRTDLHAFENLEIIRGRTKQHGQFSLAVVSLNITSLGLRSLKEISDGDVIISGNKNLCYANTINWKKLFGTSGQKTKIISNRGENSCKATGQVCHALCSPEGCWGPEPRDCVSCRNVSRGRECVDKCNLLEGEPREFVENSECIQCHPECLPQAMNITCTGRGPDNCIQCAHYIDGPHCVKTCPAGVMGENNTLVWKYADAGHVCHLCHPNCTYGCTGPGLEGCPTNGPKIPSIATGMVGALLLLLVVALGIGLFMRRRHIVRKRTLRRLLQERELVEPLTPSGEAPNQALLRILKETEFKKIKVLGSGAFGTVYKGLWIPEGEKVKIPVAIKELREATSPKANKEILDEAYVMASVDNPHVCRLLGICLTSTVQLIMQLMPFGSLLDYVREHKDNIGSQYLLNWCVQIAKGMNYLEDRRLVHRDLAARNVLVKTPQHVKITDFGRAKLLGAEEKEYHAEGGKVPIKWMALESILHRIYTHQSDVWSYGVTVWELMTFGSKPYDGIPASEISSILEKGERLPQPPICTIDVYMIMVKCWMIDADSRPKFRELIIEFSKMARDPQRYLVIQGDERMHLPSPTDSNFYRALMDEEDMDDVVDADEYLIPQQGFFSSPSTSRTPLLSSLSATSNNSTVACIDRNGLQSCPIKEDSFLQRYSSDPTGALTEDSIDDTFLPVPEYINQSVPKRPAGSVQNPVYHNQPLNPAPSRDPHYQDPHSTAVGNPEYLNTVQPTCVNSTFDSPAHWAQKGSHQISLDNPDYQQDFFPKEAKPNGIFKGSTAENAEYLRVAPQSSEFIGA
Outline: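 EGFR remaining after a 16 h, 37 °C exposure (8 doses, 5-fold steps from 10 uM final, 0.2% DMSO) was quantified by HTRF antibodies in cell lysate. Percent inhibition relative to DMSO control was fitted by four-parameter logistic to give DC50; Dmax denotes maximal degradation.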

[2] = system: EGFR Del19/T790M/C797S (H1975-clone #28); assay: EGFR degradation HTRF assay, H1975-clone #28 DTC cells; type: cell-based; conditions: H1975 # 28 DTC cells; for DC50: EGFR degradation, IC50 (DC50) from curve fit, read-out: DC50(nM) H1975 # 28 DTC; for Dmax (%) H1975 # 28 DTC: maximum percentage of inhibition (degradation)
Outline: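 Cells were dosed on day 2 with an 8-point, 5-fold dilution series starting at 10 uM final and incubated 16h at 37° C. After lysis for 1 hour, HTRF antibodies were added overnight at room temperature and the plate was read at 665/620 nm. Degradation was normalised to DMSO wells and fitted for DC50 and Dmax.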

| DC50 [1] [nM] | Dmax [1] [%] | DC50 [2] [nM] | SMILES | Dmax (%) H1975 # 28 DTC [2] |
| --- | --- | --- | --- | --- |
| 31.8 | 78.6 | 6.94 | CCc1ccc2c(P(C)(C)=O)c(Nc3nc(Nc4cc(CC)c(N5CCC(N6CCN(C(=O)[C@@H]7CCN(c8cc(F)c([C@H]9CCC(=O)NC9=O)c(F)c8)C7)CC6)CC5)cc4OC(F)(F)F)ncc3Br)ccc2n1 [Example 649, (R)-3-(4-((R)-3-(4-(1-(4-((5-bromo-4-((5-(dimethylphosphoryl)-2-ethylquinolin-6-yl)amino)pyrimidin-2-yl)amino)-2-ethyl-5-(trifluoromethoxy)phenyl)piperidin-4-yl)piperazine-1-carbonyl)pyrrolidin-1-yl)-2,6-difluorophenyl)piperidine-2,6-dione] | 75.95% |
| 16 | 75 | 3.39 | CCc1ccc2c(P(C)(C)=O)c(Nc3nc(Nc4cc(CC)c(N5CCC(N6CCN(CC[C@H]7CCN(c8cc(F)c(C9CCC(=O)NC9=O)c(F)c8)C7)CC6)CC5)cc4OC)ncc3Br)ccc2n1 (stereo partly drawn) [Example 650, 3-(4-((S)-3-(2-(4-(1-(4-((5-bromo-4-((5-(dimethylphosphoryl)-2-ethylquinolin-6-yl)amino)pyrimidin-2-yl)amino)-2-ethyl-5-methoxyphenyl)piperidin-4-yl)piperazin-1-yl)ethyl)pyrrolidin-1-yl)-2,6-difluorophenyl)piperidine-2,6-dione] | 59.93% |
| 2.13 | 87.7 | 1.17 | CCOc1cc(N2CCC(N3CCN(CCc4ccc5c(c4)oc(=O)n5C4CCC(=O)NC4=O)CC3)CC2)c(CC)cc1Nc1ncc(Br)c(Nc2ccc3nc(C)c(F)cc3c2P(C)(C)=O)n1 (stereo not shown) [Example 651, 3-(6-(2-(4-(1-(4-((5-bromo-4-((5-(dimethylphosphoryl)-3-fluoro-2-methylquinolin-6-yl)amino)pyrimidin-2-yl)amino)-5-ethoxy-2-ethylphenyl)piperidin-4-yl)piperazin-1-yl)ethyl)-2-oxobenzo[d]oxazol-3(2H)-yl)piperidine-2,6-dione] | 79.33% |
| 5.23 | 81.1 | 1.35 | CCc1cc(Nc2ncc(Br)c(Nc3ccc4nc(NC5CC5)ccc4c3P(C)(C)=O)n2)c(OC)cc1N1CCC(N2CCN(C(=O)[C@@H]3CCN(c4cc(F)c([C@H]5CCC(=O)NC5=O)c(F)c4)C3)CC2)CC1 [Example 652, (R)-3-(4-((R)-3-(4-(1-(4-((5-bromo-4-((2-(cyclopropylamino)-5-(dimethylphosphoryl)quinolin-6-yl)amino)pyrimidin-2-yl)amino)-2-ethyl-5-methoxyphenyl)piperidin-4-yl)piperazine-1-carbonyl)pyrrolidin-1-yl)-2,6-difluorophenyl)piperidine-2,6-dione] | 86.65% |
| 7.19 | 87.7 | 0.7 | CCc1cc(Nc2ncc(Br)c(Nc3ccc4nc(NC5CC5)ccc4c3P(C)(C)=O)n2)c(OC)cc1N1CCC(N2CCN(CCc3cc(F)c([C@H]4CCC(=O)NC4=O)c(F)c3)CC2)CC1 [Example 653, (R)-3-(4-(2-(4-(1-(4-((5-bromo-4-((2-(cyclopropylamino)-5-(dimethylphosphoryl)quinolin-6-yl)amino)pyrimidin-2-yl)amino)-2-ethyl-5-methoxyphenyl)piperidin-4-yl)piperazin-1-yl)ethyl)-2,6-difluorophenyl)piperidine-2,6-dione] | 87.89% |
| 23.2 | 74.8 | 2.08 | CCc1ccc2c(P(C)(C)=O)c(Nc3nc(Nc4cc(CC)c(N5CCC(N6CCN(CCc7ccc([C@H]8CCC(=O)NC8=O)cc7)CC6)CC5)cc4OC)ncc3Br)ccc2n1 [Example 654, (R)-3-(4-(2-(4-(1-(4-((5-bromo-4-((5-(dimethylphosphoryl)-2-ethylquinolin-6-yl)amino)pyrimidin-2-yl)amino)-2-ethyl-5-methoxyphenyl)piperidin-4-yl)piperazin-1-yl)ethyl)phenyl)piperidine-2,6-dione] | 66.53% |
| 16.4 | 90.2 | 4.21 | CCc1ccc2c(P(C)(C)=O)c(Nc3nc(Nc4cc(CC)c(N5CCC(N6CCN(C(=O)[C@@H]7CCN(c8cc(F)c([C@H]9CCC(=O)NC9=O)c(F)c8)C7)CC6)CC5)cc4OC4CC4)ncc3Br)ccc2n1 [Example 655, (R)-3-(4-((R)-3-(4-(1-(4-((5-bromo-4-((5-(dimethylphosphoryl)-2-ethylquinolin-6-yl)amino)pyrimidin-2-yl)amino)-5-cyclopropoxy-2-ethylphenyl)piperidin-4-yl)piperazine-1-carbonyl)pyrrolidin-1-yl)-2,6-difluorophenyl)piperidine-2,6-dione] | 81.86% |
| 5.22 | 83.6 | 1.66 | CCc1cc(Nc2ncc(Br)c(Nc3ccc4ccnnc4c3P(C)(C)=O)n2)c(OC)cc1N1CCC(N2CCN(C(=O)[C@@H]3CCN(c4cc(F)c([C@H]5CCC(=O)NC5=O)c(F)c4)C3)CC2)CC1 [Example 656, (R)-3-(4-((R)-3-(4-(1-(4-((5-bromo-4-((8-(dimethylphosphoryl)cinnolin-7-yl)amino)pyrimidin-2-yl)amino)-2-ethyl-5-methoxyphenyl)piperidin-4-yl)piperazine-1-carbonyl)pyrrolidin-1-yl)-2,6-difluorophenyl)piperidine-2,6-dione] | 83.91% |
| 3.3 | 87.7 | 0.981 | CCOc1cc(N2CCC(N3CCN(CCc4cc(F)c([C@H]5CCC(=O)NC5=O)c(F)c4)[C@H](CO)C3)CC2)c(CC)cc1Nc1ncc(Br)c(Nc2ccc3nc(CC)ccc3c2P(C)(C)=O)n1 [Example 657, (R)-3-(4-(2-((S)-4-(1-(4-((5-bromo-4-((5-(dimethylphosphoryl)-2-ethylquinolin-6-yl)amino)pyrimidin-2-yl)amino)-5-ethoxy-2-ethylphenyl)piperidin-4-yl)-2-(hydroxymethyl)piperazin-1-yl)ethyl)-2,6-difluorophenyl)piperidine-2,6-dione] | 86.35% |
| 4.46 | 84.2 | 0.59 | CCc1ccc2c(P(C)(C)=O)c(Nc3nc(Nc4cc(CC)c(N5CCC(N6CCN(C(=O)Cc7c(C)ccc8c7C(C)(C)C(=O)N8C7CCC(=O)NC7=O)CC6)CC5)cc4OC)ncc3Br)ccc2n1 (stereo not shown) [Example 658, 3-(4-(2-(4-(1-(4-((5-bromo-4-((5-(dimethylphosphoryl)-2-ethylquinolin-6-yl)amino)pyrimidin-2-yl)amino)-2-ethyl-5-methoxyphenyl)piperidin-4-yl)piperazin-1-yl)-2-oxoethyl)-3,3,5-trimethyl-2-oxoindolin-1-yl)piperidine-2,6-dione] | 71.03 7% |
| 17.8 | 73.3 | 2.8 | CCOc1cc(N2CCC(N3CCN(CCc4cc(F)c5c(c4)C4(CC4)C(=O)N5C4CCC(=O)NC4=O)CC3)CC2)c(CC)cc1Nc1ncc(Br)c(Nc2ccc3nc(CC)ccc3c2P(C)(C)=O)n1 (stereo not shown) [Example 659, 3-(5′-(2-(4-(1-(4-((5-bromo-4-((5-(dimethylphosphoryl)-2-ethylquinolin-6-yl)amino)pyrimidin-2-yl)amino)-5-ethoxy-2-ethylphenyl)piperidin-4-yl)piperazin-1-yl)ethyl)-7′-fluoro-2′-oxospiro[cyclopropane-1,3′-indolin]-1′-yl)piperidine-2,6-dione] | 77.5% |
| 8.68 | 85.8 | 0.609 | CCc1cc(Nc2ncc(Br)c(Nc3ccc4nc(C)sc4c3P(C)(C)=O)n2)c(OC)cc1N1CCC(N2CCN(CCc3cc(F)c([C@H]4CCC(=O)NC4=O)c(F)c3)CC2)CC1 [Example 661, (R)-3-(4-(2-(4-(1-(4-((5-bromo-4-((7-(dimethylphosphoryl)-2-methylbenzo[d]thiazol-6-yl)amino)pyrimidin-2-yl)amino)-2-ethyl-5-methoxyphenyl)piperidin-4-yl)piperazin-1-yl)ethyl)-2,6-difluorophenyl)piperidine-2,6-dione] | 87.94% |
| 5.4 | 97 | 2.23 | CCc1cc(Nc2ncc(Br)c(Nc3ccc4nc(C)ccc4c3P(C)(C)=O)n2)c(OC)cc1N1CCC(N2CCN(C(=O)[C@@H]3CN(c4cc(F)c([C@H]5CCC(=O)NC5=O)c(F)c4)CC3(C)C)CC2)CC1 [Example 662, (R)-3-(4-((S)-4-(4-(1-(4-((5-bromo-4-((5-(dimethylphosphoryl)-2-methylquinolin-6-yl)amino)pyrimidin-2-yl)amino)-2-ethyl-5-methoxyphenyl)piperidin-4-yl)piperazine-1-carbonyl)-3,3-dimethylpyrrolidin-1-yl)-2,6-difluorophenyl)piperidine-2,6-dione] | 89.14% |
